Columns and labels:
Format in all cases: cell-based
rat beta cells [1] = assay: Number of living beta cells in culture (Hoechst 33342/propidium iodide whole-well imaging counts; expansion assay)
Procedure: Beta cells were FACS-purified from islet-cell enriched suspensions (Pipeleers et al., 1985) prepared from neonatal (2-3 days-old) and adolescent or adult (8 or 40-week-old, male) Wistar rats (Janvier Bioservices, France); their purity was, respectively 70-75% and over 90%. Sorted cells were counted in a hemocytometer, seeded (day 0) and cultured for up to 15 days in serum-free Ham's-F10 medium at 5, 10 or 20 mmol/l glucose, supplemented with 2 mmol/l L-glutamine, 50 μM 3-isobutyl-1-methylxanthine, 0.5% Albumax-I, penicillin (100 U/ml) and streptomycin (0.1 mg/ml). The 10 mmol/l glucose condition is known to maintain beta cell survival over 9-days (Ling et al., 1994; Ling and Pipeleers, 1994). Medium and cells were retrieved after selected culture periods and assayed for insulin content; data were expressed as a function of the number of living beta cells that was determined in parallel wells.
On day 1, 9 and 15 of culture, total numbers of living beta cells per well were determined by semi-automatic cell count, after Hoechst 33342 (Ho) and propidium iodide (PI) staining. Numbers of living beta cells were obtained by subtracting the PI-positive cell numbers from the Ho-positive cell numbers, and correcting for the percent insulin-negative cells, as determined following insulin-immunofluorescence staining. They were expressed as percent of the numbers on day 1. Each condition was also evaluated for increases in the percentage of proliferating beta cells (incorporating the thymidine-analogue 5-ethynyl-2′-deoxyuridine, EdU; 100 μmol/l). To detect beta cells that underwent two successive cycles, cells were sequentially exposed to two different thymidine-analogs, first EdU from day 3 to 6, and then BrdU (100 μmol/l) from day 7 to 10, with a 24-hour label-free period in between. EdU-positive (EdU^+) nuclei were detected with the Click-iT Assay kit (Invitrogen), while BrdU-positive (BrdU^+) nuclei were identified with anti-BrdU antibody.
Absolute number of cells was determined by whole-well imaging using the BD-PathwayBioimager855 (BD-Biosciences). IPLab and AttoVision software packages (BD-Biosciences) were used for image background subtraction, segmentation and quantification.
Experimental procedures for isolation of beta cells from neonatal (2-3 days old) and adult (8 or 40 week old, male) Wistar rats (Janvier Bioservices, France) and analysis of their number, viability and proliferation activity in culture have been described before (Assefa et al., 2014). Sorted beta cells were seeded in 804G matrix-coated plates (designated as day 0) and the numbers and viability of seeded cells at the start of all experiments were determined on day 1 (24 h after seeding). The cells were cultured in control medium, which is a serum-free Ham's F10 medium supplemented with 2 mM L-glutamine, 50 μM 3-isobutyl-1-methylxanthine, 0.5% Albumax I, penicillin (100 U/ml), streptomycin (0.1 mg/ml) and, unless indicated otherwise, 10 mM glucose.
Sorted beta cells were seeded in 384-well or 6-well plates coated with 804G matrix, and kept in culture for up to 15 days at 37° C. 5% CO2 using Ham F10 supplemented with 1 mM L-glutamine, 0.1 mg/ml streptomycin, 0.075 mg/ml penicillin, 50 μM of isobutyl-1-methylxanthine (IBMX) at 10 mM D-glucose with and without synthetic GCs (6 methyl-prednisolone (6MP), dexamethasone (DEX), GR-modulators (compound A (CPA), mifepristone (MIF), and NFκB inhibitors (JSH-23 en Bay11-7085). Total cell number and beta cell viability was evaluated after incubation with Hoechst 33342 and propidium iodide. All chemicals were from Sigma Life Sciences or Merck. Quantification of cell numbers and analysis of beta-cell viability was done using the Pathway Bioimager (BD Biosciences) and using IPlab and Attovision software for background subtraction as described prior (Assefa et al., 2014).

rat beta cells [2] = assay: Glucose utilization and oxidation by isolated beta cells; settings: 6-day HC treatment
Procedure: FIG. 9: Glucose utilization and oxidation by isolated beta cells after treatment with HC. Purified rat beta cells were cultured for six days in control medium (white squares) or with HC (black triangles) at 10 mM glucose. Glucose utilization (A) was determined by the rate of D-(5-^3H)glucose conversion into ^3H2O and glucose oxidation (B) by that of D-(U-^14C)glucose into ^14CO2 during a 2 h incubation period at the indicated concentrations of glucose without HC. Values represent means±SEM, n=6; *, p<0.05 versus control.
Because GC signaling controls metabolic processes including glucose metabolism and we have previously reported that glucose regulates rat beta cell numbers through effects on beta cell survival and proliferation (Assefa et al., 2014)(Example 1), we investigated whether HC-induced beta cell proliferation is associated with a change in glucose metabolism. First, the metabolic effect of a 6-day treatment with HC was analyzed by 2 h glucose utilization and oxidation rates at different glucose concentrations. […] Further, HC treatment doubles the rates of both utilization and oxidation at 10 mM glucose as compared to those in control cells (p<0.05).

rat beta cells [3] = assay: Beta cell DNA synthesis/proliferation by EdU (and BrdU) incorporation, incl. LOPAC screen
Method in brief: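 Sorted beta cells on 804G matrix were cultured at 37° C in Ham F10 with 50 μM IBMX and 10 mM glucose. In the LOPAC screen, compounds were added on day 1, with EdU (10 μM) from days 3–6. Imaged % EdU-positive cells defined hits at a Z-score above three SD.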

C[C@]12CCC(=O)C=C1CC[C@@H]1[C@@H]2[C@@H](O)C[C@@]2(C)[C@H]1CC[C@]2(O)C(=O)CO [Hydrocortisone, hydrocortisone]
Number of Living Cells on Day 15 (% of Day 1) (rat beta cells [1]; 9 days, HC, 6 days, control): 168.1 ± 6.8 % of Day 1
Number of Living Cells on Day 15 (% of Day 1) (rat beta cells [1]; 15 days, HC (Table 7), control 102.5 ± 6.1): 173.9 ± 7.1 % of Day 1
Number of Living Cells on Day 15 (% of Day 1) (rat beta cells [1]; HC alone, 15 days (Table 6)): 156 ± 4 % of Day 1
Number of Living Cells on Day 15 (% of Day 1) (rat beta cells [1]; HC, glucose 7.5 high-responsive cells, control 99.0 ± 1.5): 182.0 ± 4.9 % of Day 1
Number of Living Cells on Day 15 (% of Day 1) (rat beta cells [1]; HC, glucose 7.5 low-responsive cells, control 94.0 ± 9.2): 117.3 ± 5.2 % of Day 1
Number of Living Cells on Day 15 (% of Day 1) (rat beta cells [1]; HC, mixed beta cell population, control 110.7 ± 5.0): 169.0 ± 9.3 % of Day 1
increase in absolute number of living beta cells in culture (rat beta cells [1]; two-weeks culture): near population doubling
rates of glucose utilization and oxidation compared to control cells (rat beta cells [2]; 10 mM glucose): doubles
increase of glucose utilization and oxidation over control cells (rat beta cells [2]; 20 mM glucose): 50%
Percent EdU+ cells (rat beta cells [3]; LOPAC screen at 1 μM, adult rat beta cells, EdU day 3 to 6, control medium 5.6): 28.0%
Z-Score (rat beta cells [3]; LOPAC screen at 1 μM, adult rat beta cells, EdU day 3 to 6, hit cut-off three standard deviations): 5.4
final concentration of optimal potency (dose-response studies) (rat beta cells [3]; survival and proliferation of rat beta cells, data not shown): 1000 nM

From patent US20160274087A1, “SCREENING ASSAY FOR AGENTS THAT INFLUENCE BETA CELL NUMBER AND/OR PHENOTYPE” (VRIJE UNIVERSITEIT BRUSSEL, priority 2013, published 2016)
